According to US6399626B1, “Hydroxyesters of 7-desmethylrapamycin” (Wyeth, priority 2000, dated 2002):
Converted amounts (≈) assume the structure as drawn.

Columns and labels:
Type in all cases: cell-based
Candida lusitaniae = assay: Antifungal MIC, microtiter broth dilution; settings: Candida lusitaniae strain 94-3; 35° C., 24-48 hours
Description: (§1) The antifungal activity for the hydroxyesters of 7-desmethylrapamycin of this invention was confirmed in a standard pharmacological test procedure which measured the ability of the compound being evaluated to inhibit fungal growth. 7-Desmethylrapamycin 42-ester with 3-hydroxy-2-(hydroxymethyl)-2-methylpropionic acid (Compound I) was evaluated as a representative compound of this invention. The procedure used and results obtained are briefly described below. A 96 U-bottom microtiter plate was filled (50 μl/well) with RPMI 1640. The compounds to be evaluated were placed in appropriate wells, and serial diluted in successive wells to provide 11 dilutions. The concentrations ranged from 64 through 0.06 μg/ml. An adjusted inoculum of fungi (50 μl) was added to each well and the plates were incubated at 35° C. for 24-48 hours. […] Nystatin and amphotericin B were used for the purpose of comparison.

Candida krussii = assay: Antifungal MIC, microtiter broth dilution; settings: Candida krussii strain 94-2; 35° C., 24-48 hours
Description: as §1

Candida parapsilosis = assay: Antifungal MIC, microtiter broth dilution; settings: 35° C., 24-48 hours
Description: as §1

Candida rugosa = assay: Antifungal MIC, microtiter broth dilution; settings: Candida rugosa strain 94-10; 35° C., 24-48 hours
Description: as §1

Candida tropicalis = assay: Antifungal MIC, microtiter broth dilution; settings: 35° C., 24-48 hours
Description: as §1

Aspergillus fumigatus = assay: Antifungal MIC, microtiter broth dilution; settings: Aspergillus fumigatus strain ATCC 26933; 35° C., 24-48 hours
Description: as §1

Candida albicans = assay: Antifungal MIC, microtiter broth dilution; settings: 35° C., 24-48 hours
Description: as §1

Aspergillus niger = assay: Antifungal MIC, microtiter broth dilution; settings: 35° C., 24-48 hours
Description: as §1

Candida pseudotropicalis = assay: Antifungal MIC, microtiter broth dilution; settings: Candida pseudotropicalis strain ATCC 28838; 35° C., 24-48 hours
Description: as §1

[1] = test system: U87MG human glioblastoma cells; assay: Inhibition of U87MG human glioblastoma cell growth (3H-thymidine incorporation); settings: 48 hours incubation
Description: The antineoplastic activity of the compounds of this invention were confirmed in a standard pharmacological test procedure which measures the inhibition of U87MG human glioblastoma cell growth (as a function of ^3H-thymidine incorporation), using 7-desmethylrapamycin 42-ester with 3-hydroxy-2-(hydroxymethyl)-2-methylpropionic acid (Compound I) as are presentative compound of this invention. The following briefly describes the procedure used and results obtained. U87MG human glioblastoma cells (ATCC # HTB-14; available from the American Type Culture Collection; 10801 University Boulevard; Manassas, Va. 20110;), were grown in the following media.
BRL Minimum Essential Medium with Earle Salts (500 mL)
+5 mL BRL MEM Non-Essential Amino Acids (10 mM)
+5 mL BRL Penicillin-Streptomycin (10000 u/mL, 10000 μg/mL)
+5 mL BRL Na Pyruvate Solution (100 mM)
+5 mL BRL L-Glutamine 200 mM
+50 mL BRL Fetal Bovine Serum (Qualified)
1. Cells were trypsinized and plated at a concentration of 10^4 cells/well in a final volume of 200 μL growth medium in 96-well flat bottom plates and allowed to adhere for 24 hours at 37° C.
2. The media was removed by aspiration with care to not disturb the cell monolayer. 200 μL of fresh growth media was added per well, allowing enough wells for samples to be run in triplicate. […]
4. […] Mats were counted in a Wallac Betaplate counter.

[2] = Candida parapsilosis strain 94-8
[3] = Candida parapsilosis strain 94-9
[4] = Candida parapsilosis strain ATCC 90018
[5] = Candida tropicalis strain 94-13
[6] = Candida tropicalis strain 94-14
[7] = Candida albicans strain ATCC 90028

Structure (SMILES): C[C@@H]1[C@H](O)[C@@H](C)/C=C/C=C/C=C/C=C/C=C/C=C/C=C/[C@H](O[C@@H]2O[C@H](C)[C@@H](O)[C@H](N)[C@@H]2O)C[C@@H]2O[C@](O)(C[C@@H](O)C[C@@H](O)[C@H](O)CC[C@@H](O)C[C@@H](O)CC(=O)O[C@H]1C)C[C@H](O)[C@H]2C(=O)O [Amphotericin B, amphotericin B]
- ANTIFUNGAL ACTIVITY (MIC) (Candida lusitaniae): ≦0.06 μg/mL
- ANTIFUNGAL ACTIVITY (MIC) (Candida krussii): 0.12 µg/mL
- ANTIFUNGAL ACTIVITY (MIC) (Candida parapsilosis; [2]): ≦0.06 μg/mL
- ANTIFUNGAL ACTIVITY (MIC) (Candida parapsilosis; [3]): 0.12 µg/mL
- ANTIFUNGAL ACTIVITY (MIC) (Candida parapsilosis; [4]): ≦0.06 μg/mL
- ANTIFUNGAL ACTIVITY (MIC) (Candida rugosa): 0.25 µg/mL
- ANTIFUNGAL ACTIVITY (MIC) (Candida tropicalis; [5]): ≦0.06 μg/mL
- ANTIFUNGAL ACTIVITY (MIC) (Candida tropicalis; [6]): ≦0.06 μg/mL
- ANTIFUNGAL ACTIVITY (MIC) (Aspergillus fumigatus): 0.25 µg/mL
- ANTIFUNGAL ACTIVITY (MIC) (Candida albicans; Candida albicans strain 1063): ≦0.06 μg/mL
- ANTIFUNGAL ACTIVITY (MIC) (Candida albicans; Candida albicans strain 1117): 0.12 µg/mL
- ANTIFUNGAL ACTIVITY (MIC) (Candida albicans; [7]): 0.12 µg/mL
- ANTIFUNGAL ACTIVITY (MIC) (Aspergillus niger; Aspergillus niger strain S399): 0.50 µg/mL
- ANTIFUNGAL ACTIVITY (MIC) (Aspergillus niger; Aspergillus niger strain S430): 0.25 µg/mL
- ANTIFUNGAL ACTIVITY (MIC) (Candida pseudotropicalis): ≦0.06 μg/mL

Structure (SMILES): CO[C@@H]1C[C@H](C[C@@H](C)[C@@H]2CC(=O)[C@H](C)/C=C(\C)[C@@H](O)[C@@H](OC)C(=O)[C@H](C)C[C@H](C)/C=C/C=C/C=C(\C)[C@@H](O)C[C@@H]3CC[C@@H](C)[C@@](O)(O3)C(=O)C(=O)N3CCCC[C@H]3C(=O)O2)CC[C@H]1OC(=O)C(C)(CO)CO [Compound I, 7-Desmethylrapamycin 42-ester with 3-hydroxy-2-(hydroxymethyl)-2-methylpropionic acid]
- ANTIFUNGAL ACTIVITY (MIC) (Candida lusitaniae): 1 µg/mL
- ANTIFUNGAL ACTIVITY (MIC) (Candida krussii): 0.5 µg/mL
- ANTIFUNGAL ACTIVITY (MIC) (Candida parapsilosis; [2]): 2 µg/mL
- ANTIFUNGAL ACTIVITY (MIC) (Candida parapsilosis; [3]): 4 µg/mL
- ANTIFUNGAL ACTIVITY (MIC) (Candida parapsilosis; [4]): 2 µg/mL
- ANTIFUNGAL ACTIVITY (MIC) (Candida rugosa): 2 µg/mL
- ANTIFUNGAL ACTIVITY (MIC) (Candida tropicalis; [5]): 1 µg/mL
- ANTIFUNGAL ACTIVITY (MIC) (Candida tropicalis; [6]): 1 µg/mL
- ANTIFUNGAL ACTIVITY (MIC) (Aspergillus fumigatus): 64 µg/mL
- ANTIFUNGAL ACTIVITY (MIC) (Candida albicans; Candida albicans strain 1063): 1 µg/mL
- ANTIFUNGAL ACTIVITY (MIC) (Candida albicans; Candida albicans strain 1117): 4 µg/mL
- ANTIFUNGAL ACTIVITY (MIC) (Candida albicans; [7]): 1 µg/mL
- ANTIFUNGAL ACTIVITY (MIC) (Aspergillus niger; Aspergillus niger strain S399): 64 µg/mL
- ANTIFUNGAL ACTIVITY (MIC) (Aspergillus niger; Aspergillus niger strain S430): 64 µg/mL
- ANTIFUNGAL ACTIVITY (MIC) (Candida pseudotropicalis): 2 µg/mL
- IC50 [1]: 0.0065 µg/mL (≈ 6.4 nM)

Structure (SMILES): C[C@@H]1[C@H](O)[C@@H](C)/C=C/C=C/CC/C=C/C=C/C=C/C=C/C(O[C@H]2O[C@H](C)[C@@H](O)[C@H](N)[C@@H]2O)CC2O[C@](O)(CC(O)C(O)CCC(O)CC(O)CC(O)CC(=O)O[C@H]1C)CC(O)C2C(=O)O (stereo partly shown) [Nystatin]
- ANTIFUNGAL ACTIVITY (MIC) (Candida lusitaniae): 1 µg/mL
- ANTIFUNGAL ACTIVITY (MIC) (Candida krussii): 1 µg/mL
- ANTIFUNGAL ACTIVITY (MIC) (Candida parapsilosis; [2]): 2 µg/mL
- ANTIFUNGAL ACTIVITY (MIC) (Candida parapsilosis; [3]): 1 µg/mL
- ANTIFUNGAL ACTIVITY (MIC) (Candida parapsilosis; [4]): 2 µg/mL
- ANTIFUNGAL ACTIVITY (MIC) (Candida rugosa): 1 µg/mL
- ANTIFUNGAL ACTIVITY (MIC) (Candida tropicalis; [5]): 1 µg/mL
- ANTIFUNGAL ACTIVITY (MIC) (Candida tropicalis; [6]): 1 µg/mL
- ANTIFUNGAL ACTIVITY (MIC) (Aspergillus fumigatus): 2 µg/mL
- ANTIFUNGAL ACTIVITY (MIC) (Candida albicans; Candida albicans strain 1063): 1 µg/mL
- ANTIFUNGAL ACTIVITY (MIC) (Candida albicans; Candida albicans strain 1117): 1 µg/mL
- ANTIFUNGAL ACTIVITY (MIC) (Candida albicans; [7]): 1 µg/mL
- ANTIFUNGAL ACTIVITY (MIC) (Aspergillus niger; Aspergillus niger strain S399): 2 µg/mL
- ANTIFUNGAL ACTIVITY (MIC) (Aspergillus niger; Aspergillus niger strain S430): 1 µg/mL
- ANTIFUNGAL ACTIVITY (MIC) (Candida pseudotropicalis): 1 µg/mL
